{"source": "patent EP1506011B1", "about": "“AN ANTIBODY SELECTIVE FOR A TUMOR NECROSIS FACTOR-RELATED APOPTOSIS-INDUCING LIGAND RECEPTOR AND USES THEREOF” (The UAB Research Foundation, priority 2001, dated 2003)", "key": {"[1]": {"test_system": "2LMP human breast cancer xenografts", "test": "TRA-8 therapy alone or with chemotherapy or radiation in mice bearing breast cancer xenografts", "format": "in vivo, Athymic nude mice", "settings": "Figure 25 experiment; 200 µg TRA-8 i.p., adriamycin 6 mg/kg i.v.", "method": "Athymic nude mice were injected s.c. with 3 x 10^7 2LMP cells. […] The growth of tumors was monitored over time. […] Tumor size and regression rates were determined.\nData from 6 independent experiments were analyzed by individual experiment. Treatment combinations were compared with respect to in vivo anti-tumor efficacy, i.e., inhibition of tumor growth, which was measured as three endpoints; extension of tumor doubling times, percentage of tumor regressions, and growth rates over time. The actual number of days at which the tumor doubled in surface area (product of two diameters) relative to baseline on day 7 after tumor cell injection was used in the doubling time analysis. The nonparametric Kruskal-Wallis test was used for median tumor doubling time comparisons between treatments. Fisher's exact test was used to compare the proportions of tumor regressions and relapse-free regressions across treatment groups. […]\nA total of 166 animals, 10 treatment groups, and 6 independent experiments were included in the aggregate analysis. […] The median tumor doubling times were analyzed using the Kruskal-Wallis test and Fisher's exact test was used to compare the proportions of tumor regressions and relapse-free regressions across treatment groups."}, "[2]": {"test_system": "2LMP xenografts", "test": "Analysis of apoptosis in xenografts, TUNEL", "format": "in vivo, Athymic nude mice", "settings": "for stained cells: day 14, 100 µg TRA-8 days 7 and 10, adriamycin 3 mg/kg or paclitaxel 10 mg/kg days 8 and 11, untreated 4%; for intense stained cells: day 14, same doses, untreated 1%", "method": "One group of mice was untreated. The xenografts were dissected for the study of apoptosis on day 14 after tumor cell injection. The reason for the substantial reduction in treatment intensity compared to our standard treatment protocol was to allow adequate tumor tissue for analysis on day 14. Tunel assay for apoptosis in tumor xenografts was performed as follows. Five-micron paraffin sections of tissue were mounted on Superfrost/Plus slides and heated at 58°C for 1 h. Tissue sections were deparaffinized in three changes of xylene and rehydrated with one change of absolute ethanol, 95% ethanol, and 70% ethanol, each in 5-min increments. Then, the sections were placed in Tris-buffered saline (0.5M Tris base, 0.15 M NaCl, 0.0002% Triton X-100, pH 7.6). Apoptotic nuclei were detected using an Apop Tag Peroxidase kit (Intergen, Purchase, NY). Proteinase K (20 µg/ml in distilled deionized H2O) was added to the tissue specimens and incubated at room temperature for 15 min. Endogenous peroxidases were quenched with an aqueous solution of 3% hydrogen peroxide for 5 min. Sections were treated with an equilibration buffer for 30 min and then incubated with the TdT/enzyme (diluted in labeling reaction mix) for 1 h at 37°C using parafilm covers. During this incubation, the TdT enzyme binds the 3'-OH ends of DNA fragments and catalyzes the addition of digoxigenin-labeled and unlabeled deoxynucleotides. Negative controls were incubated with distilled H2O (diluted in labeling reaction mix) instead of the TdT enzyme. A stop buffer was added for 10 min at room temperature to terminate the labeling reaction. An anti-digoxigenin conjugate was added to each slide for 30 min. The chromagen 3,3' DAB was used to visualize the labeled 3' OH end of DNA fragments. The slides were then rinsed in deionized water and lightly counterstained with hematoxylin, dehydrated using graded alcohols and xylene and coverlsipped using Permount. Approximately 10 random fields were evaluated for percentage of Tunel stained and percentage of intensely stained apoptotic bodies throughout the tissue."}, "[3]": {"test_system": "PC-3 cells", "test": "Combination study of TRA-8 with Paclitaxel, XTT viability", "format": "cell-based", "settings": "Homo sapiens, PC-3, read-out: cell viability", "method": "Human prostate cancer cell line PC-3 is obtained from American Tissue Culture Collection (ATCC) and maintained in F-12K Nutrient Mixture (21127-022, Gibco BRL) containing 10% fetal bovine serum (FBS, Hyclone), 1% L-Glutamine-200 mM (25030-149, Gibco BRL) and 0.5% Penicillin Streptomycin Solution (P-7539, Sigma). RPMI1640 medium (MED-008, IWAKI) supplemented with 10% FBS and 0.5% Penicillin Streptomycin Solution is used in the following experiment. Exponentially growing PC-3 cells are collected by trypsinization and washed twice with fresh medium. The cells are then counted, resuspended in fresh medium at a density of 5 x 10^4 cells/ml and distributed in triplicate into flat-bottomed 96 well plates (3598, Corning-Coster) in a total volume of 100 µl/well one day before the start of the experiment. A representative anti-cancer drug, Paclitaxel (169-18611, Wako) dissolved in dimethylsulfoxide (10 mg/ml) is diluted in fresh medium and then added to the 96-well plates containing the cells at 50 µl/well. The final concentrations of dimethylsulfoxide are less than 0.1%. […] After incubation for a further 24 hr, 50 µl of Minimum Essential Medium (11095-098, Gibco BRL) containing 1 mg/ml of XTT and […] of PMS is added to the wells and the plates are incubated for 6 hr. OD450 is then measured by SPECTRA MAX 250 (Molecular Devices) and the cell viability is calculated as follows."}, "[4]": {"test_system": "Jurkat cells", "test": "Caspase inhibition assay, Jurkat cells with TRA-8", "format": "cell-based, human", "settings": "50 ng/ml TRA-8 overnight", "experimental": "Cell viability was determined by ATPLite, MTT, and PI exclusion assays after overnight culture. […] Cell viability was determined by ATPLite. […] Cell viability was determined by ATPLite. The results are presented as mean±SEM of triplicate cultures of two experiments. d. […] Cell viability was determined by ATPLite assay. […] Cell viability of hepatocytes was determined by the ATPLite assay. […] Cell viability was determined by the ATPLite assay."}}, "note": "Residues, ends and D or L forms follow the SMILES beside them. *: point of attachment. Cbz = O=C(OCc1ccccc1)*; CH2F = FC*"}
{"smiles": "COc1cccc2c1C(=O)c1c(O)c3c(c(O)c1C2=O)C[C@@](O)(C(=O)CO)C[C@@H]3O[C@H]1C[C@H](N)[C@H](O)[C@H](C)O1", "note": "[Adriamycin, doxorubicin]", "values": [{"measurement": "inhibition of tumor growth compared to untreated controls", "setting": "[1]", "value": "did not differ from controls"}, {"measurement": "stained cells", "setting": "[2]", "value": 8, "unit": "%"}, {"measurement": "intense stained cells", "setting": "[2]", "value": 6, "unit": "%"}]}
{"smiles": "CC(=O)O[C@H]1C(=O)[C@@]2(C)[C@H]([C@H](OC(=O)c3ccccc3)[C@]3(O)C[C@H](OC(=O)[C@H](O)[C@@H](NC(=O)c4ccccc4)c4ccccc4)C(C)=C1C3(C)C)[C@]1(OC(C)=O)CO[C@@H]1C[C@@H]2O", "note": "[Paclitaxel]", "values": [{"measurement": "viability at 0.2 µM", "setting": "[3]", "value": "> 40", "unit": "%"}, {"measurement": "stained cells", "setting": "[2]", "value": 7, "unit": "%"}, {"measurement": "intense stained cells", "setting": "[2]", "value": 2, "unit": "%"}]}
{"smiles": "CC(NC(=O)C(NC(=O)OCc1ccccc1)C(C)C)C(=O)NC(CC(=O)O)C(=O)CF", "note": "(stereo not drawn) [Z-VAD] (Cbz-Val-Ala-Asp-CH2F; configuration not given here)", "values": [{"measurement": "inhibition of TRA-8-mediated cell death", "setting": "[4]", "value": "completely inhibited"}]}
